Key:
Format in all cases: in vivo, Wistar rats
BDNF mRNA = BDNF mRNA in rat cortex, hippocampus and spinal cord after i.p. treatment (RT-PCR, ratio to S12); conditions: 3 and 10 mg/kg i.p., 6 and 24 hours after treatment
Experimental: (§1) Male adult Wistar rats (10-12 weeks) are killed by decapitation. The brains are removed, rapidly dissected with nuclease-free instruments on an ice-cold metal-plate, transferred to sterile cryotubes, and immediately shock-frozen by immersions in liquid nitrogen. Tissues are stored at −80° C. until further processing. Samples for the measurement of neurotrophin protein levels are prepared according to Lüesse et al., Exp. Brain Res. 1998: 119, 1-8. The homogenates are centrifuged at 12,500 g for 60 min, and the supernatants are used for NGF, BDNF and neurotrophin-3 (NT-3) quantification using specific ELISA assays.
(§2) Total cellular RNA is isolated according to the TRIZOL®-protocol (Gibco BRL, Eggenstein) as described by Lüesse et al. (see above).
(§3) Before being subjected to RT-PCR, the RNA extracts are supplemented with internal control RNA and optimized as described in detail by Heese K. et al., 1998, Neural Notes III, 21-23. Total RNA of each sample is first reverse-transcribed into cDNA which in turn is subjected to PCR amplification using primers specific for NGF and BDNF as described by Heese K et al., (see above).
(§4) For the quantification of neurotrophin transcripts, the ratios of densitometric scores for NGF or BDNF and S12 PCR products are calculated. Data are means±SEM of three independent experiments, each done in duplicate. N=4 to 6 for each group.

NGF mRNA = NGF mRNA in rat cortex, hippocampus and spinal cord after i.p. treatment (RT-PCR, ratio to S12); conditions: 3 and 10 mg/kg i.p., 6 and 24 hours after treatment
Experimental: as §1, §2, §3, §4

NT-3-protein = assay: NT-3 protein in rat cortex, hippocampus and spinal cord after i.p. treatment (immunoassay); conditions: 4 mg/kg i.p.
Experimental: as §1
To measure the immunoreactive NGF into the cortex, hippocampus and spinal cord of rats, a two-site ELISA is used (Weskamnp, G. and Otten, U. 1987, J. Neurochem. 48, 1779-1786). Anti-β (2.5S, 7S) NGF and anti-β (2.5S, 7S) NGF-β-gal (clone 27/21) (Boehringer Mannheim) are applied, and the NGF content in the samples is determined by comparison with an NGF standard curve (absorbance measurement at 595 nm using an ELISA reader, Dynatech MR 700). For quantification of BDNF and NT-3 levels, specific immunoassay systems are used according to the manufacturer's (Promega) protocols but modified by Heese, K. and Otten, U., 1998, J. Neurochem. 70, 699-707. Statistical evaluation of results is performed by applying analysis of variance, and the statistical error is the SEM. […]

Compound	increase of BDNF mRNA (BDNF mRNA) [fold]	increase of NGF mRNA (NGF mRNA) [fold]	increase of NT-3-protein levels (NT-3-protein) [fold]
C[C@H](NC[C@H](O)CP(=O)(O)CC1CCCCC1)c1cccc(C(=O)O)c1 [compound A]	2 to 3	2.0 to 2.5	
NCC(CC(=O)O)c1ccc(Cl)cc1 (stereo not drawn) [compound C, β-(aminomethyl)-4-chlorobenze propanoic acid]			3

From patent publication US20060148707A1, “Use of ligands to GABA beta receptors” (priority 1999, published 2006)
